{
  "source": "patent US20160271263A1",
  "about": "(Novo Nordisk A/S, priority 2010, published 2016)",
  "biological_target": "glucagon receptor (Homo sapiens, UniProt P47871)",
  "sequence (P47871 26-477)": "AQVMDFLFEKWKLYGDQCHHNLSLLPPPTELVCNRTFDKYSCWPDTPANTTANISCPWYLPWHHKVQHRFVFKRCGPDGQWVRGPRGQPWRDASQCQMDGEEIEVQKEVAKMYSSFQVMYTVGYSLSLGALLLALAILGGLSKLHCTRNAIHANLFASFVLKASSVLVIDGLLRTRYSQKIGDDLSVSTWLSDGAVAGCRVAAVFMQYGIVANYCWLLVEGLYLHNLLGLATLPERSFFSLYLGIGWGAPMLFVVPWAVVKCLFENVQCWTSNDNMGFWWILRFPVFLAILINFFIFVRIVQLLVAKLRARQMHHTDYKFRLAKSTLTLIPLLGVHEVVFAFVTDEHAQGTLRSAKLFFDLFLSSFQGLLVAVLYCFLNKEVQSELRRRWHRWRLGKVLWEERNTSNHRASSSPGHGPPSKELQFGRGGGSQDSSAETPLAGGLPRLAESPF",
  "experiment": "cell-based",
  "note": "Numbered stars: 1 amine (or outer) side, 2 acyl side, 3 side chain; on linkers, the order of the positions; unused ones are H or OH. Side chains are listed from the residue outwards. Peptide text beside a SMILES is read from it. * marks the point of attachment. C18 diacid = O=C(O)CCCCCCCCCCCCCCCCC(=O)*; γGlu = O=C(O)[C@H](CCC(=O)[*:2])N[*:1]; AEEA = NCCOCCOCC(=O)O",
  "description": "The cells (14000 per well) were incubated (37° C., 5% CO2) overnight in 384-well plates. Next day the cells were loaded with a calcium responsive dye that only distributed into the cytoplasm. Probenecid, an inhibitor of the organic anion transporter, was added to prevent the dye from leaving the cell. A PDE inhibitor was added to prevent formatted cAMP from being degraded. […] End point data were collected after 6 minutes. An increase in intracellular cAMP was proportional to an increased in calcium concentrations in the cytoplasm. […] EC50-values were calculated in Prism5.",
  "data": [
    {"smiles": "CC(C)C[C@H](NC(=O)[C@H](CC(C)C)NC(=O)[C@H](Cc1c[nH]c2ccccc12)NC(=O)[C@H](CCC(N)=O)NC(=O)[C@@H](NC(=O)[C@H](Cc1ccccc1)NC(=O)[C@H](CCC(=O)O)NC(=O)[C@H](CCC(N)=O)NC(=O)[C@H](C)NC(=O)[C@H](CCCNC(=N)N)NC(=O)[C@H](CCCCN)NC(=O)[C@H](CO)NC(=O)[C@H](CC(=O)O)NC(=O)[C@H](CC(C)C)NC(=O)[C@H](Cc1ccc(O)cc1)NC(=O)[C@H](CCCCN)NC(=O)[C@H](CO)NC(=O)[C@H](Cc1ccc(O)cc1)NC(=O)[C@H](CC(=O)O)NC(=O)[C@H](CO)NC(=O)[C@@H](NC(=O)[C@H](Cc1ccccc1)NC(=O)[C@@H](NC(=O)CNC(=O)[C@H](CCC(N)=O)NC(=O)[C@H](CO)NC(=O)[C@@H](N)Cc1c[nH]cn1)[C@@H](C)O)[C@@H](C)O)C(C)C)C(=O)N[C@@H](CC(N)=O)C(=O)N[C@@H](CCCCNC(=O)COCCOCCNC(=O)COCCOCCNC(=O)CC[C@H](NC(=O)CCCCCCCCCCCCCCCCC(=O)O)C(=O)O)C(N)=O", "note": "[Example 46, N^ε29 ([2-[2-[2-[[2-[2-[2-[[(4S)-5-hydroxy-4-[(18-hydroxy-18-oxooctadecanoyl)amino]-5-oxopentanoyl]amino]ethoxy]ethoxy]acetyl]amino]ethoxy]ethoxy]acetyl]) [Lys^17, Glu^21, Leu^27, Lys^29] Glucagon peptide amide] (H-HSQGTFTSDYSKYLDSKRAQEFVQWLLNK([AEEA-AEEA-γGlu-C18 diacid])-NH2; N-terminus assumed)", "values": [
      {"measurement": "EC50", "result": 0.003, "unit": "nM"}
    ]},
    {"smiles": "CC(C)C[C@H](NC(=O)[C@H](Cc1ccc(O)cc1)NC(=O)[C@H](CCCNC(=N)N)NC(=O)[C@H](CO)NC(=O)[C@H](Cc1ccc(O)cc1)NC(=O)[C@H](CC(=O)O)NC(=O)[C@H](CO)NC(=O)[C@@H](NC(=O)[C@H](Cc1ccccc1)NC(=O)[C@@H](NC(=O)CNC(=O)[C@H](CCC(N)=O)NC(=O)[C@H](CO)NC(=O)[C@@H](N)Cc1c[nH]cn1)[C@@H](C)O)[C@@H](C)O)C(=O)N[C@@H](CC(=O)O)C(=O)N[C@@H](CO)C(=O)N[C@@H](CCCNC(=N)N)C(=O)N[C@@H](CCCNC(=N)N)C(=O)N[C@@H](C)C(=O)N[C@@H](CCC(N)=O)C(=O)N[C@@H](CC(=O)O)C(=O)N[C@@H](Cc1ccccc1)C(=O)N[C@H](C(=O)N[C@@H](CCCCNC(=O)COCCOCCNC(=O)COCCOCCNC(=O)CC[C@H](NC(=O)CCCCCCCCCCCCCCCCC(=O)O)C(=O)O)C(=O)N[C@@H](Cc1c[nH]c2ccccc12)C(=O)N[C@@H](CC(C)C)C(=O)N[C@@H](CC(C)C)C(=O)N[C@@H](CC(N)=O)C(=O)N[C@H](C(=O)O)[C@@H](C)O)C(C)C", "note": "[Example 47] (H-HSQGTFTSDYSRYLDSRRAQDFVK([AEEA-AEEA-γGlu-C18 diacid])WLLNT-OH; N-terminus and C-terminus assumed)", "values": [
      {"measurement": "EC50", "result": 0.109, "unit": "nM"}
    ]},
    {"smiles": "CC(C)C[C@H](NC(=O)[C@H](Cc1ccc(O)cc1)NC(=O)[C@H](CCCCN)NC(=O)[C@H](CO)NC(=O)[C@H](Cc1ccc(O)cc1)NC(=O)[C@H](CC(=O)O)NC(=O)[C@H](CO)NC(=O)[C@@H](NC(=O)[C@H](Cc1ccccc1)NC(=O)[C@@H](NC(=O)CNC(=O)[C@H](CCC(N)=O)NC(=O)[C@H](CO)NC(=O)[C@@H](N)Cc1c[nH]cn1)[C@@H](C)O)[C@@H](C)O)C(=O)N[C@@H](CC(=O)O)C(=O)N[C@@H](CO)C(=O)N[C@@H](CCCNC(=N)N)C(=O)N[C@@H](CCCNC(=N)N)C(=O)N[C@@H](C)C(=O)N[C@@H](CCC(N)=O)C(=O)N[C@@H](CCC(=O)O)C(=O)N[C@@H](Cc1ccccc1)C(=O)N[C@H](C(=O)N[C@@H](CCCCNC(=O)COCCOCCNC(=O)COCCOCCNC(=O)CC[C@H](NC(=O)CCCCCCCCCCCCCCCCC(=O)O)C(=O)O)C(=O)N[C@@H](Cc1c[nH]c2ccccc12)C(=O)N[C@@H](CC(C)C)C(=O)N[C@@H](CC(C)C)C(=O)N[C@@H](CC(N)=O)C(=O)N[C@H](C(=O)O)[C@@H](C)O)C(C)C", "note": "[Example 48]", "values": [
      {"measurement": "EC50", "result": 0.021, "unit": "nM"}
    ]},
    {"smiles": "CC(C)C[C@H](NC(=O)[C@H](Cc1ccc(O)cc1)NC(=O)[C@H](CCCCN)NC(=O)[C@H](CO)NC(=O)[C@H](Cc1ccc(O)cc1)NC(=O)[C@H](CC(=O)O)NC(=O)[C@H](CO)NC(=O)[C@@H](NC(=O)[C@H](Cc1ccccc1)NC(=O)[C@@H](NC(=O)CNC(=O)[C@H](CCC(N)=O)NC(=O)[C@H](CO)NC(=O)[C@@H](N)Cc1c[nH]cn1)[C@@H](C)O)[C@@H](C)O)C(=O)N[C@@H](CC(=O)O)C(=O)N[C@@H](CO)C(=O)N[C@@H](CCCNC(=N)N)C(=O)N[C@@H](CCC(N)=O)C(=O)N[C@@H](C)C(=O)N[C@@H](CCC(N)=O)C(=O)N[C@@H](CCC(=O)O)C(=O)N[C@@H](Cc1ccccc1)C(=O)N[C@H](C(=O)N[C@@H](CCCCNC(=O)COCCOCCNC(=O)COCCOCCNC(=O)CC[C@H](NC(=O)CCCCCCCCCCCCCCCCC(=O)O)C(=O)O)C(=O)N[C@@H](Cc1c[nH]c2ccccc12)C(=O)N[C@@H](CC(C)C)C(=O)N[C@@H](CC(C)C)C(=O)N[C@@H](CC(N)=O)C(=O)N[C@H](C(=O)O)[C@@H](C)O)C(C)C", "note": "[Example 49, N^ε24-([2-[2-[2-[[2-[2-[2-[[(4S)-5-hydroxy-4-[(18-hydroxy-18-oxooctadecanoyl)amino]-5-oxopentanoyl]amino]ethoxy]ethoxy]acetyl]amino]ethoxy]ethoxy]acetyl]) [Gln^18,Glu^21,Lys^24,Leu^27] Glucagon] (H-HSQGTFTSDYSKYLDSRQAQEFVK([AEEA-AEEA-γGlu-C18 diacid])WLLNT-OH; N-terminus and C-terminus assumed)", "values": [
      {"measurement": "EC50", "result": 0.15, "unit": "nM"}
    ]},
    {"smiles": "CC(C)C[C@H](NC(=O)[C@H](Cc1ccc(O)cc1)NC(=O)[C@H](CCCCN)NC(=O)[C@H](CO)NC(=O)[C@H](Cc1ccc(O)cc1)NC(=O)[C@H](CC(=O)O)NC(=O)[C@H](CO)NC(=O)[C@@H](NC(=O)[C@H](Cc1ccccc1)NC(=O)[C@@H](NC(=O)CNC(=O)[C@H](CCC(N)=O)NC(=O)[C@H](CO)NC(=O)[C@@H](N)Cc1c[nH]cn1)[C@@H](C)O)[C@@H](C)O)C(=O)N[C@@H](CC(=O)O)C(=O)N[C@@H](CO)C(=O)N[C@@H](CCCNC(=N)N)C(=O)N[C@@H](CCCNC(=N)N)C(=O)N[C@@H](C)C(=O)N[C@@H](CCC(N)=O)C(=O)N[C@@H](CC(=O)O)C(=O)N[C@@H](Cc1ccccc1)C(=O)N[C@H](C(=O)N[C@@H](CCCCNC(=O)COCCOCCNC(=O)COCCOCCNC(=O)CC[C@H](NC(=O)CCCCCCCCCCCCCCCCC(=O)O)C(=O)O)C(=O)N[C@@H](Cc1c[nH]cn1)C(=O)N[C@@H](CC(C)C)C(=O)N[C@@H](CC(C)C)C(=O)N[C@@H](CC(N)=O)C(=O)N[C@H](C(=O)O)[C@@H](C)O)C(C)C", "note": "[Example 50, N^ε24-([2-[2-[2-[[2-[2-[2-[[(4S)-5-hydroxy-4-[(18-hydroxy-18-oxooctadecanoyl)amino]-5-oxopentanoyl]amino]ethoxy]ethoxy]acetyl]amino]ethoxy]ethoxy]acetyl]) [Lys^24,His^25,Leu^27] Glucagon]", "values": [
      {"measurement": "EC50", "result": 0.194, "unit": "nM"}
    ]},
    {"smiles": "CC(C)C[C@H](NC(=O)[C@H](Cc1ccc(O)cc1)NC(=O)[C@H](CCCCN)NC(=O)[C@H](CO)NC(=O)[C@H](Cc1ccc(O)cc1)NC(=O)[C@H](CC(=O)O)NC(=O)[C@H](CO)NC(=O)[C@@H](NC(=O)[C@H](Cc1ccccc1)NC(=O)[C@@H](NC(=O)CNC(=O)[C@H](CCC(N)=O)NC(=O)[C@H](CO)NC(=O)[C@@H](N)Cc1c[nH]cn1)[C@@H](C)O)[C@@H](C)O)C(=O)N[C@@H](CC(=O)O)C(=O)N[C@@H](CO)C(=O)N[C@@H](CCCNC(=N)N)C(=O)N[C@@H](CCCNC(=N)N)C(=O)N[C@@H](C)C(=O)N[C@@H](CCC(N)=O)C(=O)N[C@@H](CC(=O)O)C(=O)N[C@@H](Cc1ccccc1)C(=O)N[C@H](C(=O)N[C@@H](CCC(N)=O)C(=O)N[C@@H](Cc1c[nH]c2ccccc12)C(=O)N[C@@H](CC(C)C)C(=O)N[C@@H](CC(C)C)C(=O)N[C@@H](CCCCNC(=O)CC[C@H](NC(=O)CC[C@H](NC(=O)COCCOCCNC(=O)COCCOCCNC(=O)CC[C@H](NC(=O)CCCCCCCCCCCCCCCCC(=O)O)C(=O)O)C(=O)O)C(=O)O)C(=O)N[C@H](C(=O)O)[C@@H](C)O)C(C)C", "note": "[Example 52, N^ε28-([(4S)-5-hydroxy-4-[[(4S)-5-hydroxy-4-[[2-[2-[2-[[2-[2-[2-[[(4S)-5-hydroxy-4-[(18-hydroxy-18-oxooctadecanoyl)amino]-5-oxopentanoyl]amino]ethoxy]ethoxy]acetyl]amino]ethoxy]ethoxy]acetyl]amino]-5-oxopentanoyl]amino]-5-oxopentanoyl]) [Leu^27,Lys^28] Glucagon]", "values": [
      {"measurement": "EC50", "result": 0.055, "unit": "nM"}
    ]},
    {"smiles": "CC(C)C[C@H](NC(=O)[C@H](CC(C)C)NC(=O)[C@H](Cc1c[nH]c2ccccc12)NC(=O)[C@H](CCC(N)=O)NC(=O)[C@@H](NC(=O)[C@H](Cc1ccccc1)NC(=O)[C@H](CC(=O)O)NC(=O)[C@H](CCC(N)=O)NC(=O)[C@H](C)NC(=O)[C@H](CCCNC(=N)N)NC(=O)[C@H](CCCNC(=N)N)NC(=O)[C@H](CO)NC(=O)[C@H](CC(=O)O)NC(=O)[C@H](CC(C)C)NC(=O)[C@H](Cc1ccc(O)cc1)NC(=O)[C@H](CCCCN)NC(=O)[C@H](CO)NC(=O)[C@H](Cc1ccc(O)cc1)NC(=O)[C@H](CC(=O)O)NC(=O)[C@H](CO)NC(=O)[C@@H](NC(=O)[C@H](Cc1ccccc1)NC(=O)[C@@H](NC(=O)CNC(=O)[C@H](CCC(N)=O)NC(=O)[C@H](CO)NC(=O)[C@@H](N)Cc1c[nH]cn1)[C@@H](C)O)[C@@H](C)O)C(C)C)C(=O)N[C@@H](CC(N)=O)C(=O)N[C@@H](CCCCNC(=O)CC[C@H](NC(=O)CC[C@H](NC(=O)COCCOCCNC(=O)COCCOCCNC(=O)CC[C@H](NC(=O)CCCCCCCCCCCCCCCCC(=O)O)C(=O)O)C(=O)O)C(=O)O)C(=O)O", "note": "[Example 53, N^ε29-([(4S)-5-hydroxy-4-[[(4S)-5-hydroxy-4-[[2-[2-[2-[[2-[2-[2-[[(4S)-5-hydroxy-4-[(18-hydroxy-18-oxooctadecanoyl)amino]-5-oxopentanoyl]amino]ethoxy]ethoxy]acetyl]amino]ethoxy]ethoxy]acetyl]amino]-5-oxopentanoyl]amino]-5-oxopentanyl]) [Leu^27,Lys^29] Glucagon]", "values": [
      {"measurement": "EC50", "result": 0.095, "unit": "nM"}
    ]}
  ]
}
